Measured values published in paper PMC11845761, “Intestinal human carboxylesterase 2 (CES2) expression rescues drug metabolism and most metabolic syndrome phenotypes in global Ces2 cluster knockout mice” (Acta Pharmacologica Sinica, 2024).
Read-outs that look alike come from different tables or passages of the source.

Key:
[1] = Plasma pharmacokinetics of vinorelbine and deacetylvinorelbine after oral vinorelbine in CES2-modified mice; format: in vivo, mouse; conditions: mouse, plasma, oral vinorelbine 10 mg/kg, plasma; for AUC(0-t): male, po, 10 mg/kg, read-out: AUC0-4h; for Cmax: read-out: Cmax; for Tmax: read-out: Tmax
Method: (§1) For capecitabine 2-h experiments, 6–7 female mice received oral capecitabine (500 mg/kg, 10 μL/g), and tail vein blood samples were collected at 0.125, 0.25, 0.5 and 1 h after drug administration. For the vinorelbine 4-h experiment, 6-7 male mice received vinorelbine intravenously (10 mg/kg, 5 μL/g) or orally (10 mg/kg, 10 μL/g) using a blunt-ended needle. Tail vein blood samples were collected at 0.125, 0.25, 0.5, 1 and 2 h after drug administration. […] At the last time point in each experiment (2 or 4 h), mice were anesthetized with 5% isoflurane and blood was collected by cardiac puncture. […] Plasma was isolated from the blood by centrifugation at 9000 × g for 6 min at 4 °C, and the plasma fraction was collected and stored at −30 °C until analysis.
(§2) Concentrations of capecitabine (and its metabolites) and vinorelbine (and its metabolite) in mouse plasma samples and organ homogenates were determined using two independent validated high-performance liquid chromatography-tandem mass spectrometry assays.
(§3) Pharmacokinetic parameters were calculated by non-compartmental methods using the PK solver software. […] Differences were considered statistically significant when P < 0.05. All data are presented as mean ± SD.

[2] = Tissue concentrations of vinorelbine and deacetylvinorelbine 4 h after i.v. vinorelbine in CES2-modified mice; format: in vivo, mouse; conditions: male, mouse, intravenous, 10 mg/kg, i.v. vinorelbine 10 mg/kg
Method: as §1, §2, §3

[3] = parameters: method as in PMID 11822766; conditions: 24 patients; oral vinorelbine 80 mg/m^2; cited from earlier work
[4] = Plasma pharmacokinetics of vinorelbine and deacetylvinorelbine after i.v. vinorelbine in CES2-modified mice; conditions: male, mouse, plasma, iv, 10 mg/kg, AUC0-4h, i.v. vinorelbine 10 mg/kg
Method: In order to minimize variation among individuals, mice were fasted for 3 h before drug was administered orally or intravenously. […] For the vinorelbine 4-h experiment, 6-7 male mice received vinorelbine intravenously (10 mg/kg, 5 μL/g) or orally (10 mg/kg, 10 μL/g) using a blunt-ended needle. […] Time points of termination were chosen to allow both reasonable assessment of the plasma exposure of the compound and its main metabolites, and adequate measurement of tissue concentrations. In order to minimize the generation and use of mice, and as no pronounced sex differences were expected, female mice were used for the capecitabine studies and male mice for the vinorelbine studies. Tail vein blood sample collection (~50 μL) was performed using microvettes containing dipotassium-EDTA. All blood samples were rapidly placed on ice to limit any ongoing hydrolysis. At the last time point in each experiment (2 or 4 h), mice were anesthetized with 5% isoflurane and blood was collected by cardiac puncture. Cardiac puncture blood samples (600–800 μL) were collected in Eppendorf tubes containing heparin as an anticoagulant. The mice were then sacrificed by cervical dislocation and brain, liver, kidney, lung, small intestine and testis were rapidly removed. Plasma was isolated from the blood by centrifugation at 9000 × g for 6 min at 4 °C, and the plasma fraction was collected and stored at −30 °C until analysis. Organs were homogenized with 4% (w/v) bovine serum albumin and stored at −30 °C until analysis. Relative metabolite-to-parental drug ratio after drug administration was calculated by determining metabolite tissue concentration relative to corresponding parental drug concentration at the last time point.
as §2
Pharmacokinetic parameters were calculated by non-compartmental methods using the PK solver software. The area under the plasma concentration-time curve (AUC) was calculated using the trapezoidal rule, without extrapolating to infinity. The peak plasma concentration (Cmax) and the time of maximum plasma concentration (Tmax) were estimated from the original (individual mouse) data. One-way analysis of variance (ANOVA) was used when multiple groups were compared and the Tukey’s test post hoc correction was used to accommodate multiple testing. The two-sided unpaired Student’s t-test was used when treatments or differences between two specific groups were compared. Kruskal-Wallis rank test was used for semi-quantitative assessment for (H&E)-staining of white adipose tissue and Oil Red O-staining of liver. All statistical analyses were performed using the software GraphPad Prism 8 (GraphPad Software Inc., La Jolla, CA, USA). All the linear data were log-transformed before statistical tests were applied. Differences were considered statistically significant when P < 0.05. All data are presented as mean ± SD.

[5] = Tissue concentrations of vinorelbine and deacetylvinorelbine 4 h after oral vinorelbine in CES2-modified mice; format: in vivo, mouse; conditions: male, mouse, oral, 10 mg/kg, oral vinorelbine 10 mg/kg
Method: as §1, §2, §3

[6] = colon, male Ces2^–/– mice, read-out: Ccolon (colon concentration)
[7] = colon, male Ces2^–/–A mice, read-out: Ccolon (colon concentration)
[8] = colon, male Ces2^–/–V mice, read-out: Ccolon (colon concentration)
[9] = colon, male wild-type mice, read-out: Ccolon (colon concentration)
[10] = liver, male Ces2^–/– mice, read-out: Cliver (liver concentration)
[11] = liver, male Ces2^–/–A mice, read-out: Cliver (liver concentration)
[12] = liver, male Ces2^–/–V mice, read-out: Cliver (liver concentration)
[13] = liver, male wild-type mice, read-out: Cliver (liver concentration)
[14] = small intestine contents, male Ces2^–/– mice, read-out: CSIC (small intestine contents concentration)
[15] = small intestine contents, male Ces2^–/–A mice, read-out: CSIC (small intestine contents concentration)
[16] = small intestine contents, male Ces2^–/–V mice, read-out: CSIC (small intestine contents concentration)
[17] = small intestine contents, male wild-type mice, read-out: CSIC (small intestine contents concentration)
[18] = small intestine tissue, male Ces2^–/– mice, read-out: CSI (small intestine tissue concentration)
[19] = small intestine tissue, male Ces2^–/–A mice, read-out: CSI (small intestine tissue concentration)
[20] = small intestine tissue, male Ces2^–/–V mice, read-out: CSI (small intestine tissue concentration)
[21] = small intestine tissue, male wild-type mice, read-out: CSI (small intestine tissue concentration)

## CCC1=C[C@@H]2CN(C1)Cc1c([nH]c3ccccc13)[C@@](C(=O)OC)(c1cc3c(cc1OC)N(C)[C@H]1[C@@](O)(C(=O)OC)[C@H](OC(C)=O)[C@]4(CC)C=CCN5CC[C@]31[C@@H]54)C2 [Vinorelbine, reference compound]
[1]; male Ces2^–/– mice
  AUC(0-t): 491 ± 135 ng·h/mL
  Cmax: 188 ± 63 ng/mL
  Tmax: 1.9 ± 1.9 h
[1]; male Ces2^–/–A mice
  AUC(0-t): 730 ± 270 ng·h/mL
  Cmax: 333 ± 99 ng/mL
  Tmax: 1.3 ± 0.9 h
[1]; male Ces2^–/–V mice
  AUC(0-t): 585 ± 186 ng·h/mL
  Cmax: 243 ± 110 ng/mL
  Tmax: 2.4 ± 1.5 h
[1]; male wild-type mice
  AUC(0-t): 362 ± 81 ng·h/mL
  Cmax: 149 ± 59 ng/mL
  Tmax: 1.7 ± 0.7 h
[2]; [6]
  concentration at 4 h: 5620 ± 3000 ng/g
[2]; [7]
  concentration at 4 h: 5780 ± 3090 ng/g
[2]; [8]
  concentration at 4 h: 6740 ± 1470 ng/g
[2]; [9]
  concentration at 4 h: 2360 ± 692 ng/g
[2]; [10]
  concentration at 4 h: 23400 ± 6110 ng/g
[2]; [11]
  concentration at 4 h: 24300 ± 3720 ng/g
[2]; [12]
  concentration at 4 h: 24700 ± 4450 ng/g
[2]; [13]
  concentration at 4 h: 12200 ± 4960 ng/g
[2]; [14]
  concentration at 4 h: 40100 ± 25500 ng/g
[2]; [15]
  concentration at 4 h: 47200 ± 30900 ng/g
[2]; [16]
  concentration at 4 h: 48400 ± 27000 ng/g
[2]; [17]
  concentration at 4 h: 27700 ± 13400 ng/g
[2]; [18]
  concentration at 4 h: 5920 ± 1350 ng/g
[2]; [19]
  concentration at 4 h: 5600 ± 644 ng/g
[2]; [20]
  concentration at 4 h: 7680 ± 2240 ng/g
[2]; [21]
  concentration at 4 h: 3470 ± 858 ng/g
[3]
  plasma Cmax: 133.4 ± 42.3 ng/mL
[4]; male Ces2^–/– mice
  AUC(0-t): 6040 ± 1950 ng·h/mL
[4]; male Ces2^–/–A mice
  AUC(0-t): 5950 ± 3250 ng·h/mL
[4]; male Ces2^–/–V mice
  AUC(0-t): 9790 ± 5670 ng·h/mL
[4]; male wild-type mice
  AUC(0-t): 8140 ± 4780 ng·h/mL
[5]; [6]
  concentration at 4 h: 581 ± 175 ng/g
[5]; [7]
  concentration at 4 h: 788 ± 189 ng/g
[5]; [8]
  concentration at 4 h: 608 ± 203 ng/g
[5]; [9]
  concentration at 4 h: 348 ± 136 ng/g
[5]; [10]
  concentration at 4 h: 8470 ± 8150 ng/g
[5]; [11]
  concentration at 4 h: 8520 ± 3440 ng/g
[5]; [12]
  concentration at 4 h: 8300 ± 2000 ng/g
[5]; [13]
  concentration at 4 h: 1530 ± 409 ng/g
[5]; [14]
  concentration at 4 h: 159000 ± 46700 ng/g
[5]; [15]
  concentration at 4 h: 177000 ± 73000 ng/g
[5]; [16]
  concentration at 4 h: 114000 ± 19400 ng/g
[5]; [17]
  concentration at 4 h: 77000 ± 29300 ng/g
[5]; [18]
  concentration at 4 h: 18300 ± 4300 ng/g
[5]; [19]
  concentration at 4 h: 18100 ± 3650 ng/g
[5]; [20]
  concentration at 4 h: 15600 ± 6980 ng/g
[5]; [21]
  concentration at 4 h: 10800 ± 3700 ng/g
